Measurements taken from ChEMBL document CHEMBL4507297, “Data for DCP probe PF-04457845” (2021).

Legend:
[1] = molecular target: Serine/threonine-protein kinase 35 (Homo sapiens) (UniProt Q8TDR2); details: Compound concentration 1000.0 nM
[2] = molecular target: 5-hydroxytryptamine receptor 5A (Homo sapiens) (UniProt P47898); details: Compound concentration 10.0 uM
[3] = molecular target: Mitogen-activated protein kinase kinase kinase 20 (Homo sapiens) (UniProt Q9NYL2); details: Compound concentration 1000.0 nM
[4] = molecular target: Serine/threonine-protein kinase WNK2 (Homo sapiens) (UniProt Q9Y3S1); details: Compound concentration 1000.0 nM
Sequence of Serine/threonine-protein kinase WNK2 (Homo sapiens) (Q9Y3S1 whole entry): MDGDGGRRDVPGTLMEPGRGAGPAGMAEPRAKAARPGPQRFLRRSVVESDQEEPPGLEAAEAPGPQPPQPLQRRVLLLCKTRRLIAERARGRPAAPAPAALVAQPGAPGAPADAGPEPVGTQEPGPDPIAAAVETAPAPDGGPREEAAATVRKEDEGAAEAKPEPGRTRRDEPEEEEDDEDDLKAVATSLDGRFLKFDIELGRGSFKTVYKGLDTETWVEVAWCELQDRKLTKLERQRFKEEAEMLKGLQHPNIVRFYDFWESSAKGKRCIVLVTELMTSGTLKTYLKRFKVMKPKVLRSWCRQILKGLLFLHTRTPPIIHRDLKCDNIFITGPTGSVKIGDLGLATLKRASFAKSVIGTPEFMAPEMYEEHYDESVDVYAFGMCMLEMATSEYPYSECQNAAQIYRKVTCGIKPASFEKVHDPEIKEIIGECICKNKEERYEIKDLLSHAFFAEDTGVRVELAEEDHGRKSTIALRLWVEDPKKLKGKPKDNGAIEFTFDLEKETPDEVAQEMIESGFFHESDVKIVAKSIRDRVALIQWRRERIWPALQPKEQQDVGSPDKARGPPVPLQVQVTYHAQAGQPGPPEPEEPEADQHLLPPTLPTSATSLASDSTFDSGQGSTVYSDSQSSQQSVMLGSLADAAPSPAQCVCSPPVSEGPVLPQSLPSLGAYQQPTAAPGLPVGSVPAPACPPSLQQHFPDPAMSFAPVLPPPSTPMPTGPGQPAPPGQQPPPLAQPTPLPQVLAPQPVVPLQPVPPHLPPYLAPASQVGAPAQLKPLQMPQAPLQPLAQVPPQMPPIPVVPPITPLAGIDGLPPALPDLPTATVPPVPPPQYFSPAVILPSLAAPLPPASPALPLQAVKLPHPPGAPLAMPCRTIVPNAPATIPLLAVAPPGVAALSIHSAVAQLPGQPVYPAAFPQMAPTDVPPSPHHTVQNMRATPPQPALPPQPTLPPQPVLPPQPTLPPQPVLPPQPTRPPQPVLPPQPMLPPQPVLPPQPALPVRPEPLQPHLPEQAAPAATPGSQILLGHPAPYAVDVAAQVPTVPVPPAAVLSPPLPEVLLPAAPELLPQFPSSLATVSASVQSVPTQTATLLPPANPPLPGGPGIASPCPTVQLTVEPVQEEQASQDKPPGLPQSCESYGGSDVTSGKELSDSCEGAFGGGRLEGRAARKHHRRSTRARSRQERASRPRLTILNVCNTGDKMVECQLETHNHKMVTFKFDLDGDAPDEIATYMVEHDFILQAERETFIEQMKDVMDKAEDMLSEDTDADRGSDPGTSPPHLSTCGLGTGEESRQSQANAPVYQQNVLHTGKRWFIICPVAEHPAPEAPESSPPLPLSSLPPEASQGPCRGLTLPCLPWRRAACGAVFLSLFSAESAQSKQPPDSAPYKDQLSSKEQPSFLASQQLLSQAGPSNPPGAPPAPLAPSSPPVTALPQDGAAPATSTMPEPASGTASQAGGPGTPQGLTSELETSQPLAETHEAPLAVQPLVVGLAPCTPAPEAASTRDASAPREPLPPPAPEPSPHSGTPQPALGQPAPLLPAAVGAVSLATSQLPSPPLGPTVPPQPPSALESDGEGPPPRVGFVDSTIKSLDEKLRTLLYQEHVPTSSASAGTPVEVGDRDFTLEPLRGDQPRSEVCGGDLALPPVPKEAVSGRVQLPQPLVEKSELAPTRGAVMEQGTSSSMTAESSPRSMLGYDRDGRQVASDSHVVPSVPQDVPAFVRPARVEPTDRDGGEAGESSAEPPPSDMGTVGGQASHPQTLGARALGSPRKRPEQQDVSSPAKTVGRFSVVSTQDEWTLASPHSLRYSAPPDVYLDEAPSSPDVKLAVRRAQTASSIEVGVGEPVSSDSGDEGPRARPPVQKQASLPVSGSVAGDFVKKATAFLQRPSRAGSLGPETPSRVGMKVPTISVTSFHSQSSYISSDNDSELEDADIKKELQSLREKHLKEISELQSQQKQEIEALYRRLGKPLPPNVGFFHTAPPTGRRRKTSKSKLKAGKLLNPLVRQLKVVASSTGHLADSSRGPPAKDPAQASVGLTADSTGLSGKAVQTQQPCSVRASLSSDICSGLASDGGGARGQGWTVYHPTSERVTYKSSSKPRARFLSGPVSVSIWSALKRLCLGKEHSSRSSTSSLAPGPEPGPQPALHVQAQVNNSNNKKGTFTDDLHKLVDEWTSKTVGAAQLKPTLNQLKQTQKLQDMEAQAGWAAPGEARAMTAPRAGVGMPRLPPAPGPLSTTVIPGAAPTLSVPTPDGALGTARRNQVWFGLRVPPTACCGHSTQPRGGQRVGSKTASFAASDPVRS

[5] = molecular target: Sigma intracellular receptor 2 (Homo sapiens, UniProt Q5BJF2); assay: GPCRScan assay: inhibition of Sigma 2; design: radioligand conc. used [nm] 5.0, parental cells HEKT
[6] = molecular target: Ribosomal protein S6 kinase alpha-6 (Homo sapiens) (UniProt Q9UK32); details: Compound concentration 1000.0 nM
[7] = molecular target: Tyrosine-protein kinase FRK (Homo sapiens) (UniProt P42685); details: Compound concentration 1000.0 nM
[8] = molecular target: Serine/threonine-protein kinase PAK 5 (Homo sapiens) (UniProt Q9P286); details: Compound concentration 1000.0 nM
[9] = molecular target: Tyrosine-protein kinase receptor TYRO3 (Homo sapiens) (UniProt Q06418); details: Compound concentration 1000.0 nM
[10] = molecular target: Serine/threonine-protein kinase RIO2 (Homo sapiens) (UniProt Q9BVS4); details: Compound concentration 1000.0 nM
Sequence of Serine/threonine-protein kinase RIO2 (Homo sapiens) (Q9BVS4 whole entry, looked up): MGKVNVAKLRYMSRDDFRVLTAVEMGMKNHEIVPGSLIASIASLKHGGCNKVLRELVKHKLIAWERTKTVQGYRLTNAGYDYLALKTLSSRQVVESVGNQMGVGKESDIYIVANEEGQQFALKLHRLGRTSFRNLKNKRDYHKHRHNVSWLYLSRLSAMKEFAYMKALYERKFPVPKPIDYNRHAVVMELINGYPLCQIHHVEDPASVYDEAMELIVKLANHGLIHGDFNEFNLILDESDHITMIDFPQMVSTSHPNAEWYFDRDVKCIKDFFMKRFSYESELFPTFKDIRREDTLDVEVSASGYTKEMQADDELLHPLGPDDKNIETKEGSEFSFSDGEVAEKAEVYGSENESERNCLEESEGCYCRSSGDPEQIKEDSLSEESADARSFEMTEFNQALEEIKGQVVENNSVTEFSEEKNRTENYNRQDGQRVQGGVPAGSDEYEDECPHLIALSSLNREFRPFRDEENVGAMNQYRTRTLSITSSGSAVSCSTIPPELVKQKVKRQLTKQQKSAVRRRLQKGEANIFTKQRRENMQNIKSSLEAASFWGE

[11] = system: Mast/stem cell growth factor receptor Kit (Homo sapiens), P10721 [L576P]; details: Compound concentration 1000.0 nM
[12] = molecular target: Calcium/calmodulin-dependent protein kinase type II subunit beta (Homo sapiens) (UniProt Q13554); details: Compound concentration 1000.0 nM
[13] = molecular target: Serine/threonine-protein kinase ULK3 (Homo sapiens) (UniProt Q6PHR2); details: Compound concentration 1000.0 nM
Sequence of Serine/threonine-protein kinase ULK3 (Homo sapiens) (Q6PHR2 whole entry): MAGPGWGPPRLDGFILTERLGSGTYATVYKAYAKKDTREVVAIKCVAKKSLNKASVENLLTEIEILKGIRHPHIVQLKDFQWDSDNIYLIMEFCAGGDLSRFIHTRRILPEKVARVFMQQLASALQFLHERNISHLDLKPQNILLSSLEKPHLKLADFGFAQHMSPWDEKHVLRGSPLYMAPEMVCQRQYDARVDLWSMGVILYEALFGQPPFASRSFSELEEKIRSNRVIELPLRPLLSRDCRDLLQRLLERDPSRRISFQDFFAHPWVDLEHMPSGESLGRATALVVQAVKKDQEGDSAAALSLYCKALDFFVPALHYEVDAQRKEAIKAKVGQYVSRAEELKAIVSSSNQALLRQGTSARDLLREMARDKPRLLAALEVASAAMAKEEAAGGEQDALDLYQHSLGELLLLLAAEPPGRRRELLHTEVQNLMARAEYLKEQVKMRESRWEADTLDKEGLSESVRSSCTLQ

[14] = molecular target: Ribosomal protein S6 kinase alpha-1 (Homo sapiens) (UniProt Q15418); details: Compound concentration 1000.0 nM
[15] = molecular target: Serine/threonine-protein kinase PAK 3 (Homo sapiens) (UniProt O75914); details: Compound concentration 1000.0 nM
[16] = molecular target: Mitogen-activated protein kinase kinase kinase 15 (Homo sapiens) (UniProt Q6ZN16); details: Compound concentration 1000.0 nM
Sequence of Mitogen-activated protein kinase kinase kinase 15 (Homo sapiens) (Q6ZN16 whole entry): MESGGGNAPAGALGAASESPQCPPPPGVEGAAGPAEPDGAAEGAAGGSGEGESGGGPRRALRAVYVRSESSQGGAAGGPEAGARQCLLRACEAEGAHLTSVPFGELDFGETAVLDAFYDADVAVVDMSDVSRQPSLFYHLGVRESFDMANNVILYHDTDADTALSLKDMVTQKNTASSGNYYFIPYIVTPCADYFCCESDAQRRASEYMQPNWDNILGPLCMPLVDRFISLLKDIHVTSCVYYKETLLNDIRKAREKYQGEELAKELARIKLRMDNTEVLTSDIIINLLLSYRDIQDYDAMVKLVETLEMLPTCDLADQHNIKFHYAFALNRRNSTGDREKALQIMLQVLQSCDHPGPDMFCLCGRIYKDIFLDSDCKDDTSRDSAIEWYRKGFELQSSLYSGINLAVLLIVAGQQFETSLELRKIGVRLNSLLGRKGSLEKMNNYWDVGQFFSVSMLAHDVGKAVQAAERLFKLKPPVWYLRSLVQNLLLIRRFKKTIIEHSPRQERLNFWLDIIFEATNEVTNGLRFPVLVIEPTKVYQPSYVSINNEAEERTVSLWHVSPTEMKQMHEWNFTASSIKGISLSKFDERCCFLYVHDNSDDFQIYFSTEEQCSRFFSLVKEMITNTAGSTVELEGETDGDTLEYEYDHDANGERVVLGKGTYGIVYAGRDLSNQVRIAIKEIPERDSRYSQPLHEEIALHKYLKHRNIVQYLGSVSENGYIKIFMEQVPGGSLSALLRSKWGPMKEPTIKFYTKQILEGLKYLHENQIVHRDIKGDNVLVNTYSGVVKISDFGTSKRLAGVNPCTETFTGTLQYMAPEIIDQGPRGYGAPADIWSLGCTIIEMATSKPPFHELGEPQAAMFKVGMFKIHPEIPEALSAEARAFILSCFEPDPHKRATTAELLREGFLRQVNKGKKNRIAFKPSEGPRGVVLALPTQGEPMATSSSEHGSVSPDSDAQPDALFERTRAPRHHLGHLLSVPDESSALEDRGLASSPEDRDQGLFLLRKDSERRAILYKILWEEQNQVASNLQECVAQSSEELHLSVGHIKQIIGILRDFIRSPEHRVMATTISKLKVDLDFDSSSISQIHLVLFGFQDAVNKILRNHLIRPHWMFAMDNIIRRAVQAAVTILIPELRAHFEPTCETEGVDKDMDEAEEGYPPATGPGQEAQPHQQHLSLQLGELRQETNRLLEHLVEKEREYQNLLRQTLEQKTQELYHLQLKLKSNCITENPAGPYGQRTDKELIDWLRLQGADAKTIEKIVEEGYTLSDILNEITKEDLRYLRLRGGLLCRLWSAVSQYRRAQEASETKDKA

[17] = molecular target: Serine/threonine-protein kinase Nek1 (Homo sapiens) (UniProt Q96PY6); details: Compound concentration 1000.0 nM
[18] = system: Mast/stem cell growth factor receptor Kit (Homo sapiens), P10721 [A829P]; details: Compound concentration 1000.0 nM
[19] = molecular target: Serine/threonine-protein kinase Nek9 (Homo sapiens) (UniProt Q8TD19); details: Compound concentration 1000.0 nM
[20] = molecular target: Serine/threonine-protein kinase SIK2 (Homo sapiens) (UniProt Q9H0K1); details: Compound concentration 1000.0 nM
[21] = molecular target: Serine/threonine-protein kinase D3 (Homo sapiens) (UniProt O94806); details: Compound concentration 1000.0 nM
[22] = molecular target: Protein-tyrosine kinase 2-beta (Homo sapiens) (UniProt Q14289); details: Compound concentration 1000.0 nM
[23] = molecular target: Citron Rho-interacting kinase (Homo sapiens) (UniProt O14578); details: Compound concentration 1000.0 nM
[24] = system: Mast/stem cell growth factor receptor Kit (Homo sapiens), P10721 [V559D,V654A]; details: Compound concentration 1000.0 nM
[25] = system: Receptor-type tyrosine-protein kinase FLT3 (Homo sapiens), P36888 [D835Y]; details: Compound concentration 1000.0 nM
[26] = molecular target: Serine/threonine-protein kinase pim-3 (Homo sapiens) (UniProt Q86V86); details: Compound concentration 1000.0 nM
[27] = molecular target: Tyrosine-protein kinase JAK2 (Homo sapiens) (UniProt O60674); details: Compound concentration 1000.0 nM
[28] = molecular target: Activin receptor type-2A (Homo sapiens) (UniProt P27037); details: Compound concentration 1000.0 nM
[29] = molecular target: Mitogen-activated protein kinase kinase kinase 7 (Homo sapiens) (UniProt O43318); details: Compound concentration 1000.0 nM
[30] = system: eIF-2-alpha kinase GCN2 (Homo sapiens), Q9P2K8 [S808G]; details: Compound concentration 1000.0 nM
[31] = system: Tyrosine-protein kinase ABL1 (Homo sapiens), P00519 [H396P]; details: Compound concentration 1000.0 nM
[32] = molecular target: Tyrosine-protein kinase TXK (Homo sapiens) (UniProt P42681); details: Compound concentration 1000.0 nM
[33] = molecular target: Serine/threonine-protein kinase 3 (Homo sapiens) (UniProt Q13188); details: Compound concentration 1000.0 nM
[34] = molecular target: Serine/threonine-protein kinase BRSK1 (Homo sapiens) (UniProt Q8TDC3); details: Compound concentration 1000.0 nM
[35] = molecular target: Glycogen synthase kinase-3 alpha (Homo sapiens) (UniProt P49840); details: Compound concentration 1000.0 nM
[36] = molecular target: Mitogen-activated protein kinase 10 (Homo sapiens) (UniProt P53779); details: Compound concentration 1000.0 nM
[37] = molecular target: Serine/threonine-protein kinase 33 (Homo sapiens) (UniProt Q9BYT3); details: Compound concentration 1000.0 nM
[38] = system: Tyrosine-protein kinase ABL1 (Homo sapiens), P00519 [Q252H]; details: Compound concentration 1000.0 nM
[39] = molecular target: Phosphatidylinositol 5-phosphate 4-kinase type-2 beta (Homo sapiens) (UniProt P78356); details: Compound concentration 1000.0 nM
[40] = molecular target: Peripheral plasma membrane protein CASK (Homo sapiens) (UniProt O14936); details: Compound concentration 1000.0 nM
[41] = molecular target: Protein kinase C iota type (Homo sapiens) (UniProt P41743); details: Compound concentration 1000.0 nM
[42] = molecular target: Calcium-dependent protein kinase 1 (Plasmodium falciparum) (UniProt P62344); details: Compound concentration 1000.0 nM
[43] = molecular target: Casein kinase I isoform gamma-1 (Homo sapiens) (UniProt Q9HCP0); details: Compound concentration 1000.0 nM
Sequence of Casein kinase I isoform gamma-1 (Homo sapiens) (Q9HCP0 whole entry, looked up, canonical isoform): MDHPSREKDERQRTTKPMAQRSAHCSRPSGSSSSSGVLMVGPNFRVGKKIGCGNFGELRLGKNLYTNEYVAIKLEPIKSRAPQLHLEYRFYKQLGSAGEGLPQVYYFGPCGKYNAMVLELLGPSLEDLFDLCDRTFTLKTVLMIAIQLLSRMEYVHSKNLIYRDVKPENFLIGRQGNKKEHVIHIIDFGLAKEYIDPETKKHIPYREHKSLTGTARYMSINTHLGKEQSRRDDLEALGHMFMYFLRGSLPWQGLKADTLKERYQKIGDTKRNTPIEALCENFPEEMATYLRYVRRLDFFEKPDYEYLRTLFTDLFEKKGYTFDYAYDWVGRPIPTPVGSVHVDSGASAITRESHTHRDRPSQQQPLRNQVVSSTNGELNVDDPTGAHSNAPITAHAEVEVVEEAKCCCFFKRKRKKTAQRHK

[44] = molecular target: Tyrosine-protein kinase JAK1 (Homo sapiens) (UniProt P23458); details: Compound concentration 1000.0 nM
[45] = molecular target: D(3) dopamine receptor (Homo sapiens) (UniProt P35462); details: Compound concentration 10.0 uM

## O=C(Nc1cccnn1)N1CCC(=Cc2cccc(Oc3ccc(C(F)(F)F)cn3)c2)CC1
[1]
  residual activity: 100%
[2]
  inhibition: 28.4%
[3]
  residual activity: 95%
[4]
  residual activity: 92%
[5]
  Ki: 0.437 µM
[6]
  residual activity: 100%
[7]
  residual activity: 100%
[8]
  residual activity: 100%
[9]
  residual activity: 100%
[10]
  residual activity: 100%
[11]
  residual activity: 0%
[12]
  residual activity: 89%
[13]
  residual activity: 100%
[14]
  residual activity: 100%
[15]
  residual activity: 73%
[16]
  residual activity: 100%
[17]
  residual activity: 98%
[18]
  residual activity: 96%
[19]
  residual activity: 100%
[20]
  residual activity: 100%
[21]
  residual activity: 83%
[22]
  residual activity: 97%
[23]
  residual activity: 79%
[24]
  residual activity: 100%
[25]
  residual activity: 100%
[26]
  residual activity: 79%
[27]
  residual activity: 100%
[28]
  residual activity: 100%
[29]
  residual activity: 100%
[30]
  residual activity: 87%
[31]
  residual activity: 86%
[32]
  residual activity: 100%
[33]
  residual activity: 100%
[34]
  residual activity: 73%
[35]
  residual activity: 100%
[36]
  residual activity: 100%
[37]
  residual activity: 100%
[38]
  residual activity: 99%
[39]
  residual activity: 83%
[40]
  residual activity: 92%
[41]
  residual activity: 81%
[42]
  residual activity: 93%
[43]
  residual activity: 100%
[44]
  residual activity: 97%
[45]
  inhibition: 4.08%

## O=C(Nc1cccnn1)N1CC(C/C=C/c2cncc(Oc3ccc(C(F)(F)F)cn3)n2)C1
[1]
  residual activity: 94%
[2]
  inhibition: 7.85%
[3]
  residual activity: 100%
[4]
  residual activity: 0%
[5]
  Ki: 8.41 µM
[6]
  residual activity: 89%
[7]
  residual activity: 82%
[8]
  residual activity: 95%
[9]
  residual activity: 100%
[10]
  residual activity: 77%
[11]
  residual activity: 88%
[12]
  residual activity: 100%
[13]
  residual activity: 82%
[14]
  residual activity: 100%
[15]
  residual activity: 100%
[16]
  residual activity: 81%
[17]
  residual activity: 100%
[18]
  residual activity: 59%
[19]
  residual activity: 100%
[20]
  residual activity: 100%
[21]
  residual activity: 100%
[22]
  residual activity: 100%
[23]
  residual activity: 100%
[24]
  residual activity: 100%
[25]
  residual activity: 100%
[26]
  residual activity: 100%
[27]
  residual activity: 88%
[28]
  residual activity: 100%
[29]
  residual activity: 93%
[30]
  residual activity: 97%
[31]
  residual activity: 100%
[32]
  residual activity: 100%
[33]
  residual activity: 80%
[34]
  residual activity: 100%
[35]
  residual activity: 92%
[36]
  residual activity: 77%
[37]
  residual activity: 100%
[38]
  residual activity: 81%
[39]
  residual activity: 96%
[40]
  residual activity: 64%
[41]
  residual activity: 96%
[42]
  residual activity: 99%
[43]
  residual activity: 100%
[44]
  residual activity: 100%
[45]
  inhibition: -9.59%
